The record followed here is patent US11084829B2, “Ubiquitin-specific-processing protease 7 (USP7) modulators and uses thereof” (RAPT THERAPEUTICS, INC., priority 2018, dated 2021).

The structures appear in SMILES notation.

USP7, sequence (Q93009 whole entry): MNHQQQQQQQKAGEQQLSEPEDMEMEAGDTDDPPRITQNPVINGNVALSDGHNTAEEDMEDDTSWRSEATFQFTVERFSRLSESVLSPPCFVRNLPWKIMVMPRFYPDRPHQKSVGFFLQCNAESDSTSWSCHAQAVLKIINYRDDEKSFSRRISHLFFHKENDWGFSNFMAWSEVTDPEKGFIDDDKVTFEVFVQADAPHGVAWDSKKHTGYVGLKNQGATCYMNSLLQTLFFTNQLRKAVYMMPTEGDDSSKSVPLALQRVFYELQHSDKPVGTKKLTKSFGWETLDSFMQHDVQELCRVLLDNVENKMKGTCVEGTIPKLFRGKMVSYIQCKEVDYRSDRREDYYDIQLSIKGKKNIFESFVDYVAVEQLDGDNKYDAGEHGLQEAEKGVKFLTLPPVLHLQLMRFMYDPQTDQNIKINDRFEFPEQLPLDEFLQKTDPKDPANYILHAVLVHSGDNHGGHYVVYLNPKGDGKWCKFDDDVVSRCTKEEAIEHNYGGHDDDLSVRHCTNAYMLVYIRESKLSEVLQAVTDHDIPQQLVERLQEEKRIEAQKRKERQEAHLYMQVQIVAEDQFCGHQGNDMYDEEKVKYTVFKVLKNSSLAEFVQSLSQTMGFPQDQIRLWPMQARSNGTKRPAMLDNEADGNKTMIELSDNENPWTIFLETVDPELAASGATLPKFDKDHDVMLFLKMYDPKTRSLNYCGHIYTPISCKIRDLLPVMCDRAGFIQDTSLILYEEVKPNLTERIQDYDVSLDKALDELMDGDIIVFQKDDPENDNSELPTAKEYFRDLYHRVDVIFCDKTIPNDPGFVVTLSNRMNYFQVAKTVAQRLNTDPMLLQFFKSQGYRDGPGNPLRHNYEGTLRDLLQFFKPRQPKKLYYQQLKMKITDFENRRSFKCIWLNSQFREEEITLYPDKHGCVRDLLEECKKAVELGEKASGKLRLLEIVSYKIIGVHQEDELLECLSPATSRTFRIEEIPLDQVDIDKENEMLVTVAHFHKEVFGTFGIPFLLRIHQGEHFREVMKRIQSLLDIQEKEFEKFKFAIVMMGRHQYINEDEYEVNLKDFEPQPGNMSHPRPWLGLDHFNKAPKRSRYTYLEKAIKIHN

This assay concerns the target USP7 (Homo sapiens, UniProt Q93009). The experiment in a line: USP7 inhibitory potency (IC50). It is filed as biochemical. The procedure:
Activity for compounds described herein is provided in Table 2, wherein potency levels are provided as follows: (Potency: USP7 IC50: A<0.01 μM; B=0.01-0.1 μM; C=>0.1 μM.
For `Cc1cc(Cl)cc(-c2ccnc3cc(CN4C(=O)C5CC5C4=O)sc23)c1CN1CCCNCC1C` (stereo not drawn) [Example 38, 3-((7-(5-chloro-3-methyl-2-((2-methyl-1,4-diazepan-1-yl)methyl)phenyl)thieno[3,2-b]pyridin-2-yl)methyl)-3-azabicyclo[3.1.0]hexane-2,4-dione], the IC50 was below 10 nM. The figure for `Cc1cc(Cl)cc(-c2ncnc3cc(Cn4ccc(=O)[nH]c4=O)sc23)c1C[C@@H]1CNCC(C)(C)O1` [Example 267, (R)-1-((4-(5-chloro-2-((6,6-dimethylmorpholin-2-yl)methyl)-3-methylphenyl)thieno[3,2-d]pyrimidin-6-yl)methyl)pyrimidine-2,4(1H,3H)-dione] is below 10 nM; for `Cc1cc(Cl)cc(-c2ncnc3cc(CN4C(=O)CNC4=O)sc23)c1C[C@@H]1CNCC(C)(C)O1` [Example 273, (R)-3-((4-(5-chloro-2-((6,6-dimethylmorpholin-2-yl)methyl)-3-methylphenyl)thieno[3,2-d]pyrimidin-6-yl)methyl)imidazolidine-2,4-dione] it is below 10 nM. The same measure for `Cc1cc(Cl)cc(-c2ncnc3cc(Cn4c(=O)ccn(C)c4=O)sc23)c1CN1C[C@@H](C)NC[C@@H]1C` [Example 66, 3-((4-(5-chloro-2-(((2S,5R)-2,5-dimethylpiperazin-1-yl)methyl)-3-methylphenyl)thieno[3,2-d]pyrimidin-6-yl)methyl)-1-methylpyrimidine-2,4(1H,3H)-dione]: below 10 nM; for `Cc1cc(Cl)cc(-c2ccnc3cc(Cn4c(=O)ccn(C)c4=O)sc23)c1CC1CNCC2(CCC2)O1` (stereo not drawn) [Example 145, 3-((7-(2-((5-oxa-8-azaspiro[3.5]nonan-6-yl)methyl)-5-chloro-3-methylphenyl)thieno[3,2-b]pyridin-2-yl)methyl)-1-methylpyrimidine-2,4(1H,3H)-dione]: below 10 nM. `Cc1cc(Cl)cc(-c2ccnc3c(F)c(CN4C(=O)C5C(C4=O)C5(C)C)sc23)c1C[C@@H]1CNCCO1` (stereo partly drawn) [Example 146, 3-((7-(5-chloro-3-methyl-2-(((R)-morpholin-2-yl)methyl)phenyl)-3-fluorothieno[3,2-b]pyridin-2-yl)methyl)-6,6-dimethyl-3-azabicyclo[3.1.0]hexane-2,4-dione]: the IC50 fell in the range of 10 to 100 nM. The same measure for `Cc1cc(Cl)cc(-c2ncnc3cc(CN4CC(C(F)F)CC4=O)sc23)c1C[C@@H]1CNCC(C)(C)O1` (stereo partly drawn) [Example 228, 1-((4-(5-chloro-2-(((R)-6,6-dimethylmorpholin-2-yl)methyl)-3-methylphenyl)thieno[3,2-d]pyrimidin-6-yl)methyl)-4-(difluoromethyl)pyrrolidin-2-one]: 10 to 100 nM; for `Cc1cc(Cl)cc(-c2ncnc3cc(CN4C(=O)C5CC5C4=O)sc23)c1C[C@@H]1CNC[C@@H](C)O1` (stereo partly drawn) [Example 155, 3-((4-(5-chloro-3-methyl-2-(((2R,6R)-6-methylmorpholin-2-yl)methyl)phenyl)thieno[3,2-d]pyrimidin-6-yl)methyl)-3-azabicyclo[3.1.0]hexane-2,4-dione]: below 10 nM; for `Cc1cc(Cl)cc(-c2ncnc3cc(CN4C(=O)CCC4=O)sc23)c1CC1CNCCO1` (stereo not drawn) [Example 153, 1-((4-(5-chloro-3-methyl-2-(morpholin-2-ylmethyl)phenyl)thieno[3,2-d]pyrimidin-6-yl)methyl)pyrrolidine-2,5-dione]: below 10 nM. The same measure for `Cc1cc(Cl)cc(-c2ncnc3cc(CN4C(=O)CCC4(C)C#N)sc23)c1CC1CNCC(C)(C)O1` (stereo not drawn) [Example 195, 1-((4-(5-chloro-2-((6,6-dimethylmorpholin-2-yl)methyl)-3-methylphenyl)thieno[3,2-d]pyrimidin-6-yl)methyl)-2-methyl-5-oxopyrrolidine-2-carbonitrile]: 10 to 100 nM. The same measure for `Cc1cc(Cl)cc(-c2ccnc3cc(CN4C(=O)C5CC5C4=O)sc23)c1C[C@H]1OCCN[C@@H]1C` (stereo partly drawn) [Example 104, 3-((7-(5-chloro-3-methyl-2-(((2R,3R)-3-methylmorpholin-2-yl)methyl)phenyl)thieno[3,2-b]pyridin-2-yl)methyl)-3-azabicyclo[3.1.0]hexane-2,4-dione]: below 10 nM; for `Cc1cc(Cl)cc(-c2ncnc3cc(CN4C(=O)CN(CC(F)(F)F)C4=O)sc23)c1CC1CNCCO1` (stereo not drawn) [Example 176, 3-((4-(5-chloro-3-methyl-2-(morpholin-2-ylmethyl)phenyl)thieno[3,2-d]pyrimidin-6-yl)methyl)-1-(2,2,2-trifluoroethyl)imidazolidine-2,4-dione]: below 10 nM; for `Cc1cc(Cl)cc(-c2ccnc3cc(CN4C(=O)C5CC5C4=O)sc23)c1C[C@H]1CNCC(C)(C)O1` (stereo partly drawn) [Example 134, 3-((7-(5-chloro-2-(((S)-6,6-dimethylmorpholin-2-yl)methyl)-3-methylphenyl)thieno[3,2-b]pyridin-2-yl)methyl)-3-azabicyclo[3.1.0]hexane-2,4-dione]: 10 to 100 nM. As to `Cc1cc(Cl)cc(-c2ncnc3cc(CN4C(=O)CCC4=O)sc23)c1CC1CNCC2(COC2)O1` (stereo not drawn) [Example 237, 1-((4-(2-((2,5-dioxa-8-azaspiro[3.5]nonan-6-yl)methyl)-5-chloro-3-methylphenyl)thieno[3,2-d]pyrimidin-6-yl)methyl)pyrrolidine-2,5-dione], the half-maximal inhibitory concentration (IC50) was below 10 nM. The figure for `Cc1cc(Cl)cc(-c2ccnc3cc(CN4C(=O)C5CC5C4=O)sc23)c1C[C@H]1OCCN[C@H]1C` (stereo partly drawn) [Example 106, 3-((7-(5-chloro-3-methyl-2-(((2R,3 S)-3-methylmorpholin-2-yl)methyl)phenyl)thieno[3,2-b]pyridin-2-yl)methyl)-3-azabicyclo[3.1.0]hexane-2,4-dione] is below 10 nM; for `C[C@H]1CNCCN1Cc1c(F)cc(Cl)cc1-c1ncnc2cc(CN3C(=O)C4CC4C3=O)sc12` (stereo partly drawn) [Example 61, 3-((4-(5-chloro-3-fluoro-2-(((S)-2-methylpiperazin-1-yl)methyl)phenyl)thieno[3,2-d]pyrimidin-6-yl)methyl)-3-azabicyclo[3.1.0]hexane-2,4-dione] it is 10 to 100 nM; for `Cc1cc(Cl)cc(-c2ncnc3cc(CN4C(=O)CCCC4=O)sc23)c1CN1C[C@@H](C)NC[C@@H]1C` [Example 69, 1-((4-(5-chloro-2-(((2S,5R)-2,5-dimethylpiperazin-1-yl)methyl)-3-methylphenyl)thieno[3,2-d]pyrimidin-6-yl)methyl)piperidine-2,6-dione] it is below 10 nM.

On to `Cc1cc(Cl)cc(-c2ncnc3cc(CN4C(=O)C5C(C4=O)C5(C)C)sc23)c1CN1[C@@H](C)CNC[C@@H]1C` (stereo partly drawn) [Example 56, 3-((4-(5-chloro-2-(((2S,6S)-2,6-dimethylpiperazin-1-yl)methyl)-3-methylphenyl)thieno[3,2-d]pyrimidin-6-yl)methyl)-6,6-dimethyl-3-azabicyclo[3.1.0]hexane-2,4-dione], for which the IC50 lay in the range of 10 to 100 nM.

`Cc1cc(Cl)cc(-c2ncnc3cc(CN4C(=O)N(C)C(C)(C)C4=O)sc23)c1C[C@@H]1CNCC(C)(C)O1` [Example 233, (R)-3-((4-(5-chloro-2-((6,6-dimethylmorpholin-2-yl)methyl)-3-methylphenyl)thieno[3,2-d]pyrimidin-6-yl)methyl)-1,5,5-trimethylimidazolidine-2,4-dione]: the IC50 is below 10 nM. For the compound `Cc1cc(Cl)cc(-c2ccnc3cc(CN4C(=O)CCC4=O)sc23)c1CN1[C@@H](C)CN(C(C)C)C[C@@H]1C` [Example 30, 1-((7-(5-chloro-2-(((2S,6S)-4-isopropyl-2,6-dimethylpiperazin-1-yl)methyl)-3-methylphenyl)thieno[3,2-b]pyridin-2-yl)methyl)pyrrolidine-2,5-dione], the 50% inhibitory concentration (IC50) is below 10 nM. The same measure for `Cc1cc(Cl)cc(-c2ccnc3cc(CN4C(=O)C5CC5C4=O)sc23)c1CC1COCCN1` (stereo not drawn) [Example 115, 3-((7-(5-chloro-3-methyl-2-(morpholin-3-ylmethyl)phenyl)thieno[3,2-b]pyridin-2-yl)methyl)-3-azabicyclo[3.1.0]hexane-2,4-dione]: above 100 nM; for `Cc1cc(Cl)cc(-c2ncnc3cc(Cn4c(=O)ccn(CC(F)(F)F)c4=O)sc23)c1CN1C[C@@H](C)NC[C@@H]1C` [Example 73, 3-((4-(5-chloro-2-(((2S,5R)-2,5-dimethylpiperazin-1-yl)methyl)-3-methylphenyl)thieno[3,2-d]pyrimidin-6-yl)methyl)-1-(2,2,2-trifluoroethyl)pyrimidine-2,4(1H,3H)-dione]: below 10 nM. The same measure for `Cc1cc(Cl)cc(-c2ncnc3cc(CN4C(=O)CCN(C)C4=O)sc23)c1C[C@H]1CNCC(C)(C)O1` [Example 214, (S)-3-((4-(5-chloro-2-((6,6-dimethylmorpholin-2-yl)methyl)-3-methylphenyl)thieno[3,2-d]pyrimidin-6-yl)methyl)-1-methyldihydropyrimidine-2,4(1H,3H)-dione]: 10 to 100 nM. The figure for `Cc1cc(Cl)cc(-c2ccnc3cc(CN4C(=O)C5CC5C4=O)sc23)c1CN1C[C@@H](C)NC[C@@H]1C` (stereo partly drawn) [Example 36, 3-((7-(5-chloro-2-(((2S,5R)-2,5-dimethylpiperazin-1-yl)methyl)-3-methylphenyl)thieno[3,2-b]pyridin-2-yl)methyl)-3-azabicyclo[3.1.0]hexane-2,4-dione] is 10 to 100 nM; for `C[C@@H]1CN(Cc2c(Cl)cc(Cl)cc2-c2ccnc3cc(CN4C(=O)C5CC5C4=O)sc23)[C@@H](C)CN1` (stereo partly drawn) [Example 43, 3-((7-(3,5-dichloro-2-(((2S,5R)-2,5-dimethylpiperazin-1-yl)methyl)phenyl)thieno[3,2-b]pyridin-2-yl)methyl)-3-azabicyclo[3.1.0]hexane-2,4-dione] it is below 10 nM. On to `Cn1ccc(=O)n(Cc2cc3nccc(-c4cc(Cl)cc(Cl)c4CC4CNCCO4)c3s2)c1=O` (stereo not drawn) [Example 142, 3-((7-(3,5-dichloro-2-(morpholin-2-ylmethyl)phenyl)thieno[3,2-b]pyridin-2-yl)methyl)-1-methylpyrimidine-2,4(1H,3H)-dione], for which the IC50 was below 10 nM. The figure for `O=C1CCC(=O)N1Cc1cc2nccc(-c3cc(Cl)cc(Cl)c3CC3CNCCO3)c2s1` (stereo not drawn) [Example 127, 1-((7-(3,5-dichloro-2-(morpholin-2-ylmethyl)phenyl)thieno[3,2-b]pyridin-2-yl)methyl)pyrrolidine-2,5-dione] is below 10 nM.
